# Data taken from patent US20260242391A1 (priority 2023, published 2026).
# Tests used:
# [1] = system: HL-60; assay: HL-60 differentiation potency; assay type: cell-based; conditions: Homo sapiens
# [2] = in vitro; conditions: human
EC50 [1] [nM],IC50 [2] [nM],Structure (SMILES)
59.6,800,"CC(C)C(C(=O)O)c1ccc(O[C@H]2O[C@@H]3O[C@@]4(C)CC[C@H]5[C@H](C)CC[C@@H]([C@H]2C)[C@@]35OO4)cc1 (stereo partly drawn) [Compound 146, 3-methyl-2-(4-(((3R,5aS,6R,8aS, 9R,10S,12R, 12aR)-3,6,9-trimethyldeca-hydro-12H-3,12-epoxy[1,2]dioxepino[4,3-i]isochromen-10-yl)oxy)phenyl) butanoic acid]"
132,10500,"C[C@H]1[C@@H](OCc2cc(C(=O)O)ccc2Cl)O[C@@H]2O[C@@]3(C)CC[C@H]4[C@H](C)CC[C@@H]1[C@@]24OO3 [Compound 167, 4-chloro-3-((((3R,5aS,6R,8aS, 9R,10S,12R, 12aR)-3,6,9-trimethyldeca-hydro-12H-3,12-epoxy[1,2]dioxepino[4,3-i]isochromen-10-yl)oxy)methyl) benzoic acid]"
30.9,3000,"C[C@H]1[C@H](Oc2ccc(C#CC(=O)O)cc2)O[C@@H]2O[C@@]3(C)CC[C@H]4[C@H](C)CC[C@@H]1[C@@]24OO3 [Compound 139, 3-(4-(((3R,5aS,6R,8aS, 9R,10R,12R, 12aR)-3,6,9-trimethyldeca-hydro-12H-3,12-epoxy[1,2]dioxepino[4,3-i]isochromen-10-yl)oxy)phenyl) propiolic acid]"
8190,11000,"C[C@H]1[C@@H](Nc2cccc(F)c2)O[C@@H]2O[C@@]3(C)CC[C@H]4[C@H](C)CC[C@@H]1[C@@]24OO3 [Compound 56, (3R,5aS,6R,8aS, 9R,10S,12R, 12aR)-N-(3-fluorophenyl)-3,6,9-trimethyldeca-hydro-12H-3,12-epoxy[1,2] dioxepino[4,3-i] isochromen-10-amine]"
782,> 20000,"C[C@H]1[C@H](OCC2CCC(C(=O)O)CC2)O[C@@H]2O[C@@]3(C)CC[C@H]4[C@H](C)CC[C@@H]1[C@@]24OO3 (stereo partly drawn) [Compound 42, (1S,4s)-4-((((3R,5aS,6R, 8aS,9R,10R,12R, 12aR)-3,6,9-trimethyldeca-hydro-12H-3,12-epoxy[1,2]dioxepino[4,3-i]isochromen-10-yl)oxy)methyl) cyclohexane-1-carboxylic acid]"
> 20000,> 20000,"C[C@H]1[C@H](N(C)C23CC(C(=O)O)(C2)C3)O[C@@H]2O[C@@]3(C)CC[C@H]4[C@H](C)CC[C@@H]1[C@@]24OO3 [Compound 103, 3-(methyl((3R,5aS, 6R,8aS,9R,10R, 12R,12aR)-3,6,9-trimethyldeca-hydro-12H-3,12-epoxy[1,2]dioxepino[4,3-i]isochromen-10-yl)amino)bicyclo [1.1.1]pentane-1-carboxylic acid]"
123,> 20000,"C[C@H]1[C@H](OCCCc2ccc(C(=O)O)cc2)O[C@@H]2O[C@@]3(C)CC[C@H]4[C@H](C)CC[C@@H]1[C@@]24OO3 [Compound 21, 4-(3-(((3R,5aS,6R,8aS, 9R,10R,12R, 12aR)-3,6,9-trimethyldeca-hydro-12H-3,12-epoxy[1,2]dioxepino[4,3-i]isochromen-10-yl)oxy)propyl) benzoic acid]"
241,> 20000,"C[C@H]1[C@@H](O[C@H]2CC[C@@H](CC(=O)O)C2)O[C@@H]2O[C@@]3(C)CC[C@H]4[C@H](C)CC[C@@H]1[C@@]24OO3 [Compound 130, 2-((1R,3S)-3-(((3R,5aS,6R,8aS, 9R,10S,12R, 12aR)-3,6,9-trimethyldeca-hydro-12H-3,12-epoxy[1,2]dioxepino[4,3-i]isochromen-10-yl)oxy)cyclo-pentyl)acetic acid]"
88.9,1420,"C[C@H]1[C@@H](OCc2ccc(C(=O)O)nc2)O[C@@H]2O[C@@]3(C)CC[C@H]4[C@H](C)CC[C@@H]1[C@@]24OO3 [Compound 13, 5-((((3R,5aS,6R, 8aS,9R,10S,12R, 12aR)-3,6,9-trimethyldeca-hydro-12H-3,12-epoxy[1,2]dioxepino[4,3-i]isochromen-10-yl)oxy)methyl) picolinic acid]"
95.5,243,"C[C@H]1[C@H](N(C)CCS(C)(=O)=O)O[C@@H]2O[C@@]3(C)CC[C@H]4[C@H](C)CC[C@@H]1[C@@]24OO3 [Compound 17, (3R,5aS,6R,8aS, 9R,10R,12R, 12aR)-N,3,6,9-tetramethyl-N-(2-(methylsulfonyl)ethyl)decahydro-12H-3,12-epoxy [1,2]dioxepino [4,3-i] isochromen-10-amine]"
45.3,6500,"C[C@H]1[C@H](OCc2cc(C(=O)O)ccc2Cl)O[C@@H]2O[C@@]3(C)CC[C@H]4[C@H](C)CC[C@@H]1[C@@]24OO3 [Compound 168, 4-chloro-3-((((3R,5aS,6R,8aS, 9R,10R,12R, 12aR)-3,6,9-trimethyldeca-hydro-12H-3,12-epoxy[1,2]dioxepino[4,3-i]isochromen-10-yl)oxy)methyl) benzoic acid]"
2820,> 20000,"COc1cc(CO[C@@H]2O[C@@H]3O[C@@]4(C)CC[C@H]5[C@H](C)CC[C@@H]([C@H]2C)[C@@]35OO4)ccc1C(=O)O [Compound 54, 2-methoxy-4-((((3R,5aS,6R,8aS, 9R,10R,12R, 12aR)-3,6,9-trimethyldeca-hydro-12H-3,12-epoxy[1,2]dioxepino[4,3-i]isochromen-10-yl)oxy)methyl) benzoic acid]"
314,19000,"C[C@H]1[C@@H](OC[C@]2(F)CC[C@H](C(=O)O)CC2)O[C@@H]2O[C@@]3(C)CC[C@H]4[C@H](C)CC[C@@H]1[C@@]24OO3 [Compound 140, (1S,4r)-4-fluoro-4-((((3R,5aS,6R,8aS, 9R,10S,12R, 12aR)-3,6,9-trimethyldeca-hydro-12H-3,12-epoxy[1,2]dioxepino[4,3-i]isochromen-10-yl)oxy)methyl) cyclohexane-1-carboxylic acid]"
498,535,"C[C@H]1[C@H](NCCCS(C)(=O)=O)O[C@@H]2O[C@@]3(C)CC[C@H]4[C@H](C)CC[C@@H]1[C@@]24OO3 [Compound 100, (3R,5aS,6R,8aS, 9R,10R,12R, 12aR)-3,6,9-trimethyl-N-(3-(methylsulfonyl)propyl)deca-hydro-12H-3,12-epoxy[1,2] dioxepino[4,3-i] isochromen-10-amine]"
70.8,9000,"C[C@H]1[C@@H](Oc2ccc3c(c2)OC(C(=O)O)C3)O[C@@H]2O[C@@]3(C)CC[C@H]4[C@H](C)CC[C@@H]1[C@@]24OO3 (stereo partly drawn) [Compound 154, 6-(((3R,5aS,6R,8aS, 9R,10S,12R, 12aR)-3,6,9-trimethyldeca-hydro-12H-3,12-epoxy[1,2]dioxepino[4,3-i]isochromen-10-yl)oxy)-2,3-dihydrobenzo-furan-2-carboxylic acid]"
57.7,> 20000,"Cc1cc(CC(=O)O)ccc1O[C@H]1O[C@@H]2O[C@@]3(C)CC[C@H]4[C@H](C)CC[C@@H]([C@H]1C)[C@@]24OO3 [Compound 8, 2-(3-methyl-4-(((3R,5aS,6R,8aS, 9R,10S,12R, 12aR)-3,6,9-trimethyldeca-hydro-12H-3,12-epoxy[1,2]dioxepino[4,3-i]isochromen-10-yl)oxy)phenyl) acetic acid]"
> 20000,> 20000,"C[C@H]1[C@H](OCc2ccc(C(=O)O)c(Cl)c2)O[C@@H]2O[C@@]3(C)CC[C@H]4[C@H](C)CC[C@@H]1[C@@]24OO3 [Compound 92, 2-chloro-4-((((3R,5aS,6R, 8aS,9R,10R,12R, 12aR)-3,6,9-trimethyldeca-hydro-12H-3,12-epoxy[1,2]dioxepino[4,3-i]isochromen-10-yl)oxy)methyl) benzoic acid]"
28.8,2450,"C[C@H]1[C@@H](Oc2ccc(C3(C(=O)O)CC3)cc2)O[C@@H]2O[C@@]3(C)CC[C@H]4[C@H](C)CC[C@@H]1[C@@]24OO3 [Compound 124, 1-(4-(((3R,5aS,6R,8aS, 9R,10S,12R, 12aR)-3,6,9-trimethyldeca-hydro-12H-3,12-epoxy[1,2]dioxepino[4,3-i]isochromen-10-yl)oxy)phenyl) cyclopropane-1-carboxylic acid]"
2100,≥ 20000,"C[C@H]1[C@H](OCc2ccc(S(N)(=O)=O)cc2)O[C@@H]2O[C@@]3(C)CC[C@H]4[C@H](C)CC[C@@H]1[C@@]24OO3 [Compound 49, 4-((((3R,5aS,6R,8aS, 9R,10R,12R, 12aR)-3,6,9-trimethyldeca-hydro-12H-3,12-epoxy[1,2]dioxepino[4,3-i]isochromen-10-yl)oxy)methyl) benzene-sulfonamide]"
170,> 20000,"C[C@H]1[C@H](OC[C@H]2CCC[C@@H](C(=O)O)C2)O[C@@H]2O[C@@]3(C)CC[C@H]4[C@H](C)CC[C@@H]1[C@@]24OO3 [Compound 173, (1R,3S)-3-((((3R,5aS,6R,8aS, 9R,10R,12R, 12aR)-3,6,9-trimethyldeca-hydro-12H-3,12-epoxy[1,2]dioxepino[4,3-i]isochromen-10-yl)oxy)methyl) cyclohexane-1-carboxylic acid]"
> 20000,> 20000,"C[C@H]1[C@H](NCc2ccncc2)O[C@@H]2O[C@@]3(C)CC[C@H]4[C@H](C)CC[C@@H]1[C@@]24OO3 [Compound 98, (3R,5aS,6R,8aS, 9R,10R,12R, 12aR)-3,6,9-trimethyl-N-(pyridin-4-ylmethyl)deca-hydro-12H-3,12-epoxy[1,2] dioxepino[4,3-i] isochromen-10-amine]"
47.1,900,"C[C@H]1[C@@H](Oc2ccc(CC(=O)O)cc2C(F)(F)F)O[C@@H]2O[C@@]3(C)CC[C@H]4[C@H](C)CC[C@@H]1[C@@]24OO3 [Compound 183, 2-(3-(trifluoromethyl)-4-(((3R,5aS,6R, 8aS,9R,10S,12R, 12aR)-3,6,9-trimethyldeca-hydro-12H-3,12-epoxy[1,2]dioxepino[4,3-i]isochromen-10-yl)oxy)phenyl) acetic acid]"

Structure (SMILES),EC50 [1] [nM],IC50 [2] [nM]
"C[C@@H]1CC[C@H]2[C@@H](C)C(OCc3ccc(C(=O)O)cc3F)O[C@@H]3O[C@@]4(C)CC[C@@H]1[C@]32OO4 (stereo in doubt) [Compound 45, 3-fluoro-4-((((3R,5aS,6R,8aS, 9R,10S,12R, 12aR)-3,6,9-trimethyldeca-hydro-12H-3,12-epoxy[1,2]dioxepino[4,3-i]isochromen-10-yl)oxy)methyl) benzoic acid]",662,> 20000
